Source: patent US20100179151A1, “TRANSDERMAL APPLICATION OF TRIAZINES FOR CONTROLLING INFECTIONS WITH COCCIDIA” (BAYER ANIMAL HEALTH GMBH, priority 2006, published 2010)
Several values for one entry are separate records, joined by “and”; a condition that tells them apart may be missing. Equal entries are not always repeated. Blank lines part the entries; values can stand above or below the compound they belong to.

Columns and labels:
Type in all cases: in vivo
[1] = Serum concentrations of toltrazuril and ponazuril after pour-on application in rabbits; conditions: for Ponazuril in mg/l on day after the treatment (serum, metabolite of toltrazuril) / Toltrazuril in mg/l on day after the treatment (serum): individual animals 1-3
Description: (§1) A. Determination of the Serum Concentrations of Toltrazuril and Ponazuril after Pour-On Application in Calves and Rabbits On day 0, the formulation of Example 10 was applied externally at a dose of 20 mg per kg (body weight) to in each case three calves and rabbits. At the points in time specified in the tables, the serum concentrations of toltrazuril and its metabolite ponazuril (toltrazuril sulphone) were determined.

[2] = Serum concentrations of toltrazuril and ponazuril after pour-on application in calves
Description: as §1

[3] = Percutaneous absorption in pigs: detection of active substance and main metabolite in serum and body tissues; conditions: pour-on, serum, musculature, skin, liver, kidney
Source text: Astonishingly, this is even the case in animal species with little hair. Animals with little hair, such as pigs, ensure the protective function of the outer integument via a thicker epidermis. It is entirely surprising that the active substance is absorbed across this thicker skin and in particular also across the stratum corneum of the skin, which is particularly thick in pigs. Moreover, the active substance can also not be taken up via the large number of hair follicles, as is in the case in other animal species with a thicker coat of hair.

Isospora suis = test: Activity of toltrazuril pour-on against artificially provoked infections in suckling pigs with Isospora suis; conditions: pour-on treatment
Description: B. Activity of Toltrazuril Pour-On Against Artificially Provoked Infections in Suckling Pigs with Isospora suis: 3 groups with 4 to 11 animals were formed. Group A was infected with oocysts and treated with the toltrazuril pour-on formulation of Example 10. Group B was not infected, but treated in the same manner, the dosage rate of group A and B being in each case 20 mg/kg body weight. Group C was infected with oocysts, but not treated with toltrazuril. The success of the treatment was determined by monitoring the live weight of the animals. To this end, the animals were weighed on different days, and the weight gain of the individual animals was determined The results are shown in Table 3.

Ponazuril in mg/l on day after the treatment (serum, metabolite of toltrazuril) ([1]; day 1, toltrazuril formulation of Example 10 pour-on 20 mg/kg): 1.79 mg/l and 1.38 mg/l (2×) | Ponazuril in mg/l on day after the treatment (serum, metabolite of toltrazuril) ([1]; day 2, toltrazuril formulation of Example 10 pour-on 20 mg/kg): 4.72 mg/L and 2.63 mg/L and 2.83 mg/L | Ponazuril in mg/l on day after the treatment (serum, metabolite of toltrazuril) ([1]; day 3, toltrazuril formulation of Example 10 pour-on 20 mg/kg): 5.03 mg/L and 4.07 mg/L and 3.42 mg/L | Ponazuril in mg/l on day after the treatment (serum, metabolite of toltrazuril) ([2]; day 0, toltrazuril formulation of Example 10 pour-on 20 mg/kg, individual animals 1-3, LoQ 25 μg/l): <LoQ | Ponazuril in mg/l on day after the treatment (serum, metabolite of toltrazuril) ([2]; day 1, toltrazuril formulation of Example 10 pour-on 20 mg/kg, individual animals 1-3): 156 mg/L and 44 mg/L and 146 mg/L | Ponazuril in mg/l on day after the treatment (serum, metabolite of toltrazuril) ([2]; day 7, toltrazuril formulation of Example 10 pour-on 20 mg/kg, individual animals 1-3): 9715 mg/L and 2735 mg/L and 2615 mg/L | Ponazuril in mg/l on day after the treatment (serum, metabolite of toltrazuril) ([2]; day 13, toltrazuril formulation of Example 10 pour-on 20 mg/kg, individual animals 1-3): 4506 mg/L and 3440 mg/L and 1905 mg/L | Ponazuril in mg/l on day after the treatment (serum, metabolite of toltrazuril) ([2]; day 21, toltrazuril formulation of Example 10 pour-on 20 mg/kg, individual animals 1-3): 1394 mg/L and 733 mg/L and 1172 mg/L
Structure (SMILES): Cc1cc(-n2c(=O)[nH]c(=O)n(C)c2=O)ccc1Oc1ccc(S(=O)(=O)C(F)(F)F)cc1 [Ponazuril, ponazuril]

Percutaneous absorption and metabolism after pour-on application [1]: percutaneously absorbed, and metabolised | Toltrazuril in mg/l on day after the treatment (serum) ([1]; day 1, formulation of Example 10 pour-on 20 mg/kg): 9.06 mg/L and 8.67 mg/L and 9.67 mg/L | Toltrazuril in mg/l on day after the treatment (serum) ([1]; day 2, formulation of Example 10 pour-on 20 mg/kg): 10.39 mg/L and 6.03 mg/L and 8.03 mg/L | Toltrazuril in mg/l on day after the treatment (serum) ([1]; day 3, formulation of Example 10 pour-on 20 mg/kg): 6.66 mg/L and 5.07 mg/L and 6.70 mg/L | Percutaneous absorption and metabolism after pour-on application [2]: percutaneously absorbed, and metabolised | Toltrazuril in mg/l on day after the treatment (serum) ([2]; day 0, formulation of Example 10 applied externally (pour-on) 20 mg/kg, individual animals 1-3, LoQ 25 μg/l): <LoQ | Toltrazuril in mg/l on day after the treatment (serum) ([2]; day 1, formulation of Example 10 pour-on 20 mg/kg, individual animals 1-3): 2180 mg/L and 650 mg/L and 2281 mg/L | Toltrazuril in mg/l on day after the treatment (serum) ([2]; day 7, formulation of Example 10 pour-on 20 mg/kg, individual animals 1-3): 9246 mg/L and 2042 mg/L and 2275 mg/L | Toltrazuril in mg/l on day after the treatment (serum) ([2]; day 13, formulation of Example 10 pour-on 20 mg/kg, individual animals 1-3): 2194 mg/L and 1806 mg/L and 702 mg/L | Toltrazuril in mg/l on day after the treatment (serum) ([2]; day 21, formulation of Example 10 pour-on 20 mg/kg, individual animals 1-3): 462 mg/L and 371 mg/L and 430 mg/L
Structure (SMILES): Cc1cc(-n2c(=O)[nH]c(=O)n(C)c2=O)ccc1Oc1ccc(SC(F)(F)F)cc1 [Toltrazuril, toltrazuril]
Percutaneous absorption: active substance and main metabolite detected in body tissues [3]: percutaneous absorption was also demonstrated | Control of massive infection with Isospora suis (Isospora suis): successfully controlled | Elimination of oocysts (parasitological efficacy) (Isospora suis): reduced elimination of oocysts | Incidence of diarrhoea (clinical efficacy) (Isospora suis): reduced incidence of diarrhoea | Weight development (clinical efficacy) (Isospora suis): better weight development
